Source: US12590071B2, “Hydrazone derivative in which terminal amine group is substituted with aryl group or heteroaryl group, and use thereof” (KOREA INSTITUTE OF SCIENCE AND TECHNOLOGY, priority 2018, dated 2026)

What was measured:
[1] = Liver microsomal stability (dog); type: in vitro ADME; settings: amount of substrate remaining; 1 μM, 0.25 mg/mL microsomes, 37° C., 30 minutes
Experimental: (§1) The liver microsomal stability of the compounds prepared according to Examples 1 to 171 was confirmed. Specifically, four kinds of liver microsomes (human, dog, rat, and mouse, each 0.25 mg/mL), a 0.1 M phosphate buffer solution (pH 7.4), and the compounds with a concentration of 1 μM were added, respectively. Then the mixture was cultured in advance at 37° C. for 5 minutes, and then further cultured at 37° C. for 30 minutes together with the addition of an NADPH generation system solution. Thereafter, a reaction was terminated by adding an acetonitrile solution containing an internal standard material (chloropropamide), centrifugal separation (14,000 rpm, 4° C.) was performed for 5 minutes, and then a supernatant was injected into an LC-MS/MS system. The substrate drugs were analyzed to evaluate the metabolic stability for 8 kinds of compounds.
(§2) The amount of substrate remaining through the reaction was analyzed using the Shimadzu Nexera XR system and TSQ vantage (Thermo). Kinetex XB-C18 (2.1 mm×100 mm, 2.6 μm, particle size; Phenomenex, USA) was used in an HPLC column, and (A) distilled water containing 0.1% formic acid and (B) acetonitrile containing 0.1% formic acid were used as mobile phases. Analyst software (version 1.6.3) and Xcalibur (version 1.6.1) were used for data analysis.

[2] = Liver microsomal stability (mouse); type: in vitro ADME; settings: amount of substrate remaining; 1 μM, 0.25 mg/mL microsomes, 37° C., 30 minutes
Experimental: as §1, §2

Tau-BiFC cells = assay: Cytotoxicity (cell survival rate) in tau-BiFC cells; settings: group treated with Forskolin alone = 100%
Experimental: (§3) In order to select new tau protein aggregation-inhibiting materials, tau-BiFC cell models, in which it is easy to observe the formation of tau oligomers in living cells, were used. […] After 48 hours, intracellular nuclei were stained using Hoechst (treatment concentration 2 μg/mL), and BiFC fluorescence intensity was automatically quantified using Operetta (PerkinElmer) to count stained nuclei in each well from the total well plates. […] Further, the degree of cytotoxicity induced by the newly synthesized compound is also based on the 100% survival rate of the group treated with Forskolin alone, and the cytotoxicity value of the compound was calculated by the equation “number of stained nuclei in the group treated with the compound/number of stained nuclei in the group treated with Forskolin x 100”.
(§4) In order to evaluate dose-dependent tau protein aggregation inhibition effects of the compounds selected according to Experimental Example 1, the selected compounds were treated in tau-BiFC cells at concentrations of 0.03 µM, […], 0.3 μM, 1 μM, 3 μM, 10 μM, and 30 μM, respectively, together with Forskolin (treatment concentration 30 µM) as a tau protein aggregation inducing material. After 48 hours, tau protein aggregation reaction and cytotoxicity degree were analyzed by observing cell images. The IC50 and toxicity of the compounds were analyzed by nonlinear regression analysis of prism software (Graph Pad).

CYP2D6 = target: T1, CYP2D6 (Homo sapiens, UniProt P10635); assay: Inhibition of CYP coenzyme activity in human liver microsomes; type: in vitro ADME; settings: compound 10 PM (so in the source); human liver microsomes 0.25 mg/mL; substrate dextromethorphan; 15 minutes
T1 construct: human liver microsomes (0.25 mg/mL); from tissue; host or cells: human liver microsomes
Experimental: (§5) 5 The inhibition effects of CYP coenzyme activity by the compounds prepared according to Examples 1 to 171 was confirmed. Specifically, human liver microsomes (0.25 mg/mL), a 0.1 M phosphate buffer solution (pH 7.4), substrate drug cocktails (phenacetin 50 μM, diclofenac 10 μM, S-mephenytoin 100 μM, dextromethorphan 5 μM, and midazolam 2.5 μM) of five kinds of drug metabolism enzymes, and the compounds with a concentration of 0 μM or 10 PM were added, respectively. Then the mixture was cultured in advance at 37° C. for 5 minutes, and then further cultured at 37° C. for 15 minutes together with the addition of an NADPH generation system solution. Thereafter, a reaction was terminated by adding an acetonitrile solution containing an internal standard material (terfenadine), centrifugal separation (14,000 rpm, 4° C.) was performed for 5 minutes, and then a supernatant was injected into an LC-MS/MS system. Metabolites of the substrate drugs were simultaneously analyzed to evaluate the drug metabolism inhibition ability.
(§6) Metabolites of each CYP coenzyme indicator drug generated through the reaction were analyzed using the Shimadzu Nexera XR system and TSQ vantage (Thermo). Kinetex C18 (2.1 mm×100 mm, 2.6 μm, particle size; Phenomenex, USA) was used in an HPLC column, and (A) distilled water containing 0.1% formic acid and (B) acetonitrile containing 0.1% formic acid were used as mobile phases, and the gradient program shown in Table 2 was applied.
(§7) The generated metabolites were quantified using an MRM (multiple reaction monitoring) quantification mode, and Xcalibur (version 1.6.1) was used for data analysis.

CYP2C19 = target: T2, CYP2C19 (Homo sapiens, UniProt P33261); assay: as above; type: in vitro ADME; settings: compound 10 PM (so in the source); human liver microsomes 0.25 mg/mL; substrate S-mephenytoin; 15 minutes
T2 construct: human liver microsomes (0.25 mg/mL); from tissue; host or cells: human liver microsomes
Experimental: as §5, §6, §7

CYP2C9 = target: T3, CYP2C9 (Homo sapiens, UniProt P11712); assay: as above; type: in vitro ADME; settings: compound 10 PM (so in the source); human liver microsomes 0.25 mg/mL; substrate diclofenac; 15 minutes
T3 construct: human liver microsomes (0.25 mg/mL); from tissue; host or cells: human liver microsomes
Experimental: as §5, §6, §7

CYP1A2 = target: T4, CYP1A2 (Homo sapiens, UniProt P05177); assay: as above; type: in vitro ADME; settings: compound 10 PM (so in the source); human liver microsomes 0.25 mg/mL; substrate phenacetin; 15 minutes
T4 construct: human liver microsomes (0.25 mg/mL); from tissue; host or cells: human liver microsomes
T4 sequence (P05177 1-516): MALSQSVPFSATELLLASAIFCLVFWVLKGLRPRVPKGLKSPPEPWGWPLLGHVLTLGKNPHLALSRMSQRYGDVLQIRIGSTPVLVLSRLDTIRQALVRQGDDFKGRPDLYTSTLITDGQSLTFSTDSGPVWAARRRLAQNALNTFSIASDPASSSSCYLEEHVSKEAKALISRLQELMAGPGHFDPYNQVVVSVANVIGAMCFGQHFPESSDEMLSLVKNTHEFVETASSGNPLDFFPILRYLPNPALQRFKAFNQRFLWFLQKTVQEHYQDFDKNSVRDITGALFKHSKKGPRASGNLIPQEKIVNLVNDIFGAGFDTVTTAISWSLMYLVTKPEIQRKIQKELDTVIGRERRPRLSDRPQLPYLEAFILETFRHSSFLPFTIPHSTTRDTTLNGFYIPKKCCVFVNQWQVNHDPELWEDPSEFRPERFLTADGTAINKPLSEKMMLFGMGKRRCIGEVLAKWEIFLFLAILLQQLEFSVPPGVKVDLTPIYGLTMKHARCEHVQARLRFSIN
Experimental: as §5, §6, §7

tau protein = target: T5, tau protein (Homo sapiens, UniProt P10636); assay: Tau protein aggregation inhibition in tau-BiFC cell model; type: cell-based; settings: tau-BiFC cells treated together with Forskolin, 48 hours
T5 construct: expressed in transfected cells
Experimental: as §3, §4

CYP3A4 = target: T6, CYP3A4 (Homo sapiens, UniProt P08684); assay: Inhibition of CYP coenzyme activity in human liver microsomes; type: in vitro ADME; parameters: scale not given here; settings: compound 10 PM (so in the source); human liver microsomes 0.25 mg/mL; substrate midazolam; 15 minutes
T6 construct: human liver microsomes (0.25 mg/mL); from tissue; host or cells: human liver microsomes
Experimental: as §5, §6, §7

[3] = Liver microsomal stability (human); type: in vitro ADME; settings: amount of substrate remaining; 1 μM, 0.25 mg/mL microsomes, 37° C., 30 minutes
Experimental: as §1, §2

[4] = Liver microsomal stability (rat); type: in vitro ADME; settings: amount of substrate remaining; 1 μM, 0.25 mg/mL microsomes, 37° C., 30 minutes
Experimental: as §1, §2

T3 sequence (P11712 whole entry): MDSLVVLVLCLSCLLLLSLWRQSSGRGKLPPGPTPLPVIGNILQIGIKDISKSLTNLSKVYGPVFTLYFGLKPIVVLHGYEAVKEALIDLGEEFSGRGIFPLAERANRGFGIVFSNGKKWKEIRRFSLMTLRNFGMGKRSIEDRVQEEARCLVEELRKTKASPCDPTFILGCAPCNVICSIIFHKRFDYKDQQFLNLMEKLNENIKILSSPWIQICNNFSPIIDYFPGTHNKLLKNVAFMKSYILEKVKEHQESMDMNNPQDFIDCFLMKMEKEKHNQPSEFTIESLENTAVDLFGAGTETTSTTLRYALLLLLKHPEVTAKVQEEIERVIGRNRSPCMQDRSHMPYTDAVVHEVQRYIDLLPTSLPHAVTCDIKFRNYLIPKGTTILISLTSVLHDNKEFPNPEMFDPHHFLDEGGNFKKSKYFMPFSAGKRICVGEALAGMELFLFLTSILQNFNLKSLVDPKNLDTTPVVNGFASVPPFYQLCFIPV
T6 sequence (P08684 whole entry): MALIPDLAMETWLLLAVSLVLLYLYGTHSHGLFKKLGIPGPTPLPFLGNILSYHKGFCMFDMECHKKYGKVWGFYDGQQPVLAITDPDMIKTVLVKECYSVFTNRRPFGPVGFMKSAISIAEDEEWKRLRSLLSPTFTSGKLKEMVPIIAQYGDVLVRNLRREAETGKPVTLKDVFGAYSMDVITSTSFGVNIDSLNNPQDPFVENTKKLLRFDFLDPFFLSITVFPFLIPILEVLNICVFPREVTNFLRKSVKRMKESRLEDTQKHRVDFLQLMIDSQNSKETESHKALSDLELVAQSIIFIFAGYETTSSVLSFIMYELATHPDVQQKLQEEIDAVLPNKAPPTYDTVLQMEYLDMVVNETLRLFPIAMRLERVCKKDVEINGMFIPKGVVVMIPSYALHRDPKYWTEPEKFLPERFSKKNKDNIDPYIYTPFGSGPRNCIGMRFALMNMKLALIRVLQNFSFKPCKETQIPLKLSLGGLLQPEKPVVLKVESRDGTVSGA
T2 sequence (P33261 whole entry): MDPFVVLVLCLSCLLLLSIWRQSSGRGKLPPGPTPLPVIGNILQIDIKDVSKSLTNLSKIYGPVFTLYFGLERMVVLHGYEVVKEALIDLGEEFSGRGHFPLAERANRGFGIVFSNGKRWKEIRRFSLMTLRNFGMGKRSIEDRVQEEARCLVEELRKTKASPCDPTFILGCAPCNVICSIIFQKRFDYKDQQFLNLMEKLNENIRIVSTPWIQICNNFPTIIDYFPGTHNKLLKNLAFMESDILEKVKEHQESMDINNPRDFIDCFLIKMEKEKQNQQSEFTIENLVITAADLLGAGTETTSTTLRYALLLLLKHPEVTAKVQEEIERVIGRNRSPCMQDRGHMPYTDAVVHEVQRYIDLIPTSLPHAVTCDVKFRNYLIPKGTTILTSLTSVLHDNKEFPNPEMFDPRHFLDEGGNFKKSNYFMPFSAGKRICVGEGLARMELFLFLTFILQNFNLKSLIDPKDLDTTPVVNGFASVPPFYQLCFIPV
T1 sequence (P10635 whole entry): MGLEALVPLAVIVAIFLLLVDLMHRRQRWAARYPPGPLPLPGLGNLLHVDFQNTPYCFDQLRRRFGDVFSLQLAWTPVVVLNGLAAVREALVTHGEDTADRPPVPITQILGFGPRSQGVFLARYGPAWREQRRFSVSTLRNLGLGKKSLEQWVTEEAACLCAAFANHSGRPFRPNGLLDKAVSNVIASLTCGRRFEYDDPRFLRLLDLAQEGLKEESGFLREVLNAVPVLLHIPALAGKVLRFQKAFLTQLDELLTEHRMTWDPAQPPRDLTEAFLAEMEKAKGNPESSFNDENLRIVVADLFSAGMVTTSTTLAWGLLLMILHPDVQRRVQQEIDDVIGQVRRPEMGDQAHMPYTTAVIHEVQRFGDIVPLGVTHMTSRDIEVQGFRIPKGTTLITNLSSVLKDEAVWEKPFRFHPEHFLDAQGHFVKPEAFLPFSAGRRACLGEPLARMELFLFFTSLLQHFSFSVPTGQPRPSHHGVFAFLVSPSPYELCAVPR
T5 sequence (P10636 2-441 isoform P10636-8 limits assumed): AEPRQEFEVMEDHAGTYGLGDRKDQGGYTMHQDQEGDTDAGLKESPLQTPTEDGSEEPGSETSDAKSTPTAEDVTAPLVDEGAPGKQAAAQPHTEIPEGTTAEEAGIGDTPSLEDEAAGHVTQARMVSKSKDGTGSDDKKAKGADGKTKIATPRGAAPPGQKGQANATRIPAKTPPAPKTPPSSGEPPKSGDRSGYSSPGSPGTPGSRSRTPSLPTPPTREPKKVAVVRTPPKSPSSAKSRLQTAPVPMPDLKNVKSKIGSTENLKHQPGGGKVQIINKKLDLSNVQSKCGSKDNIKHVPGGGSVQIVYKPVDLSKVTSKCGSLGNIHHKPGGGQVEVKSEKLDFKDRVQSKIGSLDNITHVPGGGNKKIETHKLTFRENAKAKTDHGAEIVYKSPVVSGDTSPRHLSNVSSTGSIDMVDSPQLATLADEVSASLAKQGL

Structure (SMILES)	liver microsomal stability, Dog (%) [1] [%]	liver microsomal stability, Mouse (%) [2] [%]	Cell survival rate (% @ 10 μM) (Tau-BiFC cells) [%]	inhibition effects of CYP coenzyme activity, CYP2D6 (CYP2D6)	inhibition effects of CYP coenzyme activity, CYP2C19 (CYP2C19)	inhibition effects of CYP coenzyme activity, CYP2C9 (CYP2C9)	inhibition effects of CYP coenzyme activity, CYP1A2 (CYP1A2)	IC50 (tau protein) [µM]	inhibition effects of CYP coenzyme activity, CYP3A4 (CYP3A4)	liver microsomal stability, Human (%) [3] [%]	liver microsomal stability, Rat (%) [4] [%]
Cc1cnn(-c2ccc(NN=C(C#N)C#N)cc2)c1 [Compound 36, (4-(4-methyl-1H-pyrazol-1-yl)phenyl)carbonohydrazonoyl dicyanide]	60.6	37.9	99.3	98.6	>100	60.7	86	0.053	>100	65.9	20.1
N#CC(C#N)=NNc1ccc(-n2cccn2)cc1 [Compound 35, (4-(1H-pyrazol-1-yl)phenyl)carbonohydrazonoyl dicyanide]	24.2	10.7	100	>100	>100	81.3	99.9	1.7	>100	82.2	56.4
N#CC(C#N)=NNc1ccc2nc(NC(=O)c3cnccn3)sc2c1 [Compound 92, (2-(pyrazine-2-carboxamido)benzo[d]thiazol-6-yl)carbonohydrazonoyl dicyanide]	74.7	51.9	119.5	99.1	90.5	46.8	64.1	0.24	85.5	74.6	72.7
Cn1cc2c(-c3ccc(NN=C(C#N)C#N)cc3)cccc2n1 [Compound 55, (4-(2-methyl-2H-indazol-4-yl)phenyl)carbonohydrazonoyl dicyanide]	85.6	71.2	120.1	>100	86	59.5	66.9	1	87.6	70	60.8
Cc1cncc(-c2nc3ccc(NN=C(C#N)C#N)cc3s2)c1 [Compound 110, (2-(5-methylpyridin-3-yl)benzo[d]thiazol-6-yl)carbonohydrazonoyl dicyanide]	60.2	70.8	74.6	70.8	51.3	60.2	55	0.76	55	55	51.3
N#CC(C#N)=NNc1ccc2[nH]ncc2c1 [Compound 69, (1H-indazol-5-yl)carbonohydrazonoyl dicyanide]	71.9	34.2	204.7	>100	82.1	16.6	80.1	0.19	95.2	97.6	64.4
COc1cc(-c2nccc(C)n2)ccc1NN=C(C#N)C#N [Compound 42, (2-methoxy-4-(4-methylpyrimidin-2-yl)phenyl)carbonohydrazonoyl dicyanide]	30.7	47.9	128	>100	96.2	88.8	83.6	3	>100	53.4	46.5
N#CC(C#N)=NNc1cnc2[nH]cc(Cl)c2c1 [Compound 83, (3-chloro-1H-pyrrolo[2,3-b]pyridin-5-yl)carbonohydrazonoyl dicyanide]	31.9	11	98	91.1	96.4	51	47.7	0.3	86.4	64.1	62.2
